The results in this text go back to a melting point compilation (Tetko et al.; mined from patent text by program, amines drawn as free bases though some values may be those of a salt).

The melting point is the temperature of the solid-liquid transition.

`Cc1nc2ccc3c(c2o1)C(CCNC(=O)C1CC1)CC3` (stereo not given): the melting point is 134 to 137 °C.

In the case of `O=[N+]([O-])c1ccc(-c2cc(Br)sc2-c2ccc(F)cc2)cc1`, the melting point was 129 to 130 °C.

As to `COc1ccc(Sc2nc(-c3ccc(OC)cc3)c(-c3ccc(OC)cc3)[nH]2)cc1`, the melting point was determined as 148 °C.

Compound `CN(Cc1cc2c(=O)c(C(=O)NCc3ccc(Cl)cc3)cn(C)c2o1)CC(O)c1cc2ccccc2o1` (stereo not given) yielded a melting point of 176 to 179 °C.

Take `CC(C)(C)OC(=O)NC1CC1F` (stereo not given): the melting point is 58 to 60 °C.

With `Oc1cc2c(Cl)cc(Br)cc2cc1Br`, the melting point fell in the range of 156 to 158 °C.

`COC(OC)C(CC(=O)O)C(C)(C)S(=O)(=O)c1ccc(C)cc1` (stereo not given) came in with a melting point of 144 °C.

With `O=C1NCC(Cc2ccc(Oc3ccccc3)cc2)O1` (stereo not given), the melting point was in the range of 118 to 119 °C.

In turn, `C=CC(C)(C)C(O)(COc1ccc(-c2ccccc2)cc1)Cn1ccnc1` (stereo not given) registered a melting point of 151 to 153 °C.

Compound `O=C(CC(NC(=O)C(F)(F)F)C(=O)O)c1ccc2c(c1)CCO2` (stereo not given) registered a melting point of 160 to 162 °C.

The compound `CCCCCCCCCCCCCCCC(Br)CC(=O)O` (stereo not given) yielded a melting point of 47 to 51 °C.

In turn, `CCOC(=O)C(C)(C)Oc1ccc(CNC(=O)c2sc(-c3ccc(C(C)C)cc3)nc2C)cc1C` showed a melting point of 129 to 131 °C.

Compound `CCN(CC)C(=O)COc1cccc(-n2nc(-c3ccc(F)cc3)c3cccnc32)c1` showed a melting point of 102 to 105 °C.

As for `COc1ccc2nccc(C(O)CCC3CCNCC3)c2c1` (stereo not given), the melting point stood at 154 °C.

`Cc1nc(C)nc(NC(=O)NS(=O)(=O)c2ccccc2Cl)n1` gave a melting point of 115 to 118 °C.

On to `O=C1N(Cc2nnc(-c3ccccc3)o2)c2ccccc2C12COc1cc3c(cc12)OCO3` (stereo not given), for which the melting point is 151 to 153 °C.

For `COc1cccc(C=C2c3ccccc3CCc3ccccc32)c1F`, the melting point is 149 °C.

On to `CC1(COc2ccc(OCCNCC(O)COc3ccccc3)cc2)OCCO1` (stereo not given), for which the melting point fell in the range of 95 to 97 °C.

Turning to `CCn1c(=O)c2c(nc(/C=C/c3ccc4c(c3)OCO4)n2C)n(CC)c1=O`, the melting point is 219 to 220 °C.

Regarding `Cc1cccnc1C=CCN1CCc2nc(N)sc2CC1`, the melting point fell in the range of 188 to 190 °C.

Turning to `Cn1ccnc1S(=O)(=O)C(C#N)=Cc1c(Cl)n(CC2CC2)c2ccccc12`, the melting point was 214 °C.

As to `CCCCc1nn(-c2cc([N+](=O)[O-])ccc2Cl)c(=O)n1Cc1ccc(-c2ccccc2S(=O)(=O)NC(C)(C)C)cc1F`, the melting point lay within 124 to 126 °C.

As to `CCNCC1(C)CN(c2c(F)cc3c(=O)c(C(=O)O)cn4c3c2OC[C@H]4C)C1`, the melting point lay in the range of 242 to 245 °C.

As for `CC(N)c1ccc2c(c1)CCCN2C(=O)OC(C)(C)C` (stereo not given), the melting point was in the range of 73 to 75 °C.

Take `CCCCCCCCCC(CC)SCCCCCCCCCCN1C(=O)CCC1=O` (stereo not given): the melting point is 86 °C.

In turn, `CCOC(=O)Nc1cccc(CBr)c1C(=O)OCC` registered a melting point of 70 to 72 °C.

`N#Cc1cnc2cc3c(cc2c1Nc1ccc(Cl)cc1Cl)OCCN3` came in with a melting point of 254 to 255 °C.

`O=C(O)c1noc(-c2cnccc2C(F)(F)F)n1`: the melting point was 157 to 159 °C.

For `CCc1cc(SCc2cccc3sc(-c4ccc(C(F)(F)F)cc4)nc23)ccc1OCC(=O)O`, the melting point is 89 to 92 °C.

Turning to `CC1CC(=O)NN=C1c1ccc2c(c1)C(C)(C)CC(=O)N2C` (stereo not given), the melting point lay in the range of 238 to 241 °C.

The compound `CCn1nc(C(C)(C)C)c2c1C(=O)NCC(c1ccc(O)cc1)=N2` gave a melting point of 264 °C.

`O=C(Cc1ccc(-c2ccc(C(CC3CCOCC3)c3ccc(S(=O)(=O)C4CC4)cc3)[nH]2)nc1)N1CCOCC1` (stereo not given) registered a melting point of 202 to 203 °C.

`CCOP(=O)(CC(Cc1ccccc1)NS(=O)(=O)c1ccc(C)cc1)OCC` (stereo not given) returned a melting point of 86 to 89 °C.

As to `O=C(O)COc1ccc2c(=O)c3c(Cl)cccc3oc2c1Cl`, the melting point was in the range of 270 to 271 °C.

For `COc1cccc(N=C(NC#N)Oc2ccccc2)c1`, the melting point is 170 to 171 °C.

The compound `Cc1ccc2c(Cl)ccnc2c1N` displayed a melting point of 75 to 77 °C.

In turn, `Cc1cc(C2=NOC(c3cc(Cl)cc(Cl)c3)(C(F)(F)F)C2)ccc1C(=O)NC1(Cl)N=CC=CN1` (stereo not given) returned a melting point of 231 to 234 °C.

For `CC(=O)c1ccc(O)c(CC#N)c1`, the melting point lay within 154 to 168 °C.

Compound `CCc1nn2ccccc2c1NC(C)=O` came in with a melting point of 184 to 188 °C.

The compound `Cc1nccn1-c1cc(C#N)cc(C(F)(F)F)c1` registered a melting point of 132 to 134 °C.

Compound `CCCCCCCCCCCCCCCCC#CCBr` gave a melting point of 34 to 35 °C.

Regarding `N#Cc1ccc(-c2ccc(Br)o2)cc1`, the melting point lay within 94 to 94.5 °C.

`O=C(CN1C(=O)C(c2ccccc2)c2ccccc21)N1CCOCC1` (stereo not given) gave a melting point of 153 to 154 °C.

`COc1cc(C=Cc2cc(=O)n3cccc(C)c3n2)cc(OC)c1OC` showed a melting point of 208 to 210 °C.

The compound `CC(C)N(Cc1ccc(Br)cc1)C(=S)Nc1ccccc1` returned a melting point of 134 °C.

In the case of `Cc1c(/C=C/c2ccccc2)nc2ccc(C(=O)O)cn2c1=O`, the melting point lay in the range of 312 to 313 °C.

Regarding `CC(C)(C)c1ccc(CNc2nc(Nc3cccc(C(F)(F)F)c3)nc(C(F)(F)F)n2)cc1`, the melting point lay within 53 to 55 °C.

For `Nc1ncccc1-c1nc2cccnc2n1-c1ccc(CNC(=O)c2ccccn2)cc1`, the melting point lay in the range of 172 to 174 °C.

The compound `COc1cc(Cc2cnc(N)nc2NO)cc(OC)c1OC` displayed a melting point of 208 to 210 °C.

In turn, `CCOC(=O)c1cc2c(C=O)cc3c4ccccc4ccc3c2o1` returned a melting point of 209 to 212 °C.

The compound `COCc1c(NC2CC2)c([N+](=O)[O-])cc(F)c1N1CCN(C)CC1` had a melting point of 89 to 90 °C.

`COC(=O)c1ccccc1-c1ncccc1N` returned a melting point of 188 to 189 °C.

For `COC(=O)c1[nH]c2c(C)ccc(C)c2c1C(N)=O`, the melting point lay in the range of 201 to 202 °C.

Regarding `Clc1nc(N2CC3CCC(CC3)C2)nc(N2CC3CCC(CC3)C2)n1`, the melting point fell in the range of 195 to 200 °C.

Compound `CCOC(=O)c1ncn2c1CN=C(NCC(OC)OC)c1sccc1-2` gave a melting point of 134 °C.

Take `CCCCCCCN(CCCCCSc1nc2ncccc2[nH]1)C(=O)NC(C)C`: the melting point is 101 to 102 °C.

With `O=C(O)c1ccc(NCc2ccccc2)cc1`, the melting point was 165 to 168 °C.

`Cc1nc(C)c(Cl)c(NCc2ccc(Oc3ccc4ncc([N+](=O)[O-])n4n3)cn2)n1` displayed a melting point of 194 to 198 °C.

Consider `CCCCCCCCCCCCCCc1ccc(OCC(O)CO)c(CC)c1` (stereo not given), for which the melting point is 55 to 56 °C.

The compound `CCSc1cc(C)nc(SCC)c1NC(=O)CCCCCSc1nc2ccccc2[nH]1` yielded a melting point of 139 to 142 °C.

With `COc1ccc2c(c1)c1cc(-c3cc(F)cc(F)c3)c(=O)n(C)c1n2C`, the melting point was found to be 189 °C.

In the case of `O=C(Nc1ccc2[nH]c(CO)cc2c1)c1cc2ccccc2o1`, the melting point was 164 to 165 °C.

As to `Cc1ccc2c(c1)C(=O)c1ccc(C#N)cc1S2(=O)=O`, the melting point amounted to 290 °C.

Regarding `CN(Cc1ccc(CCC(=O)Nc2ccc(-c3ccc(Cl)cc3)cc2)cc1)C1CCOCC1`, the melting point was in the range of 167 to 173 °C.

Consider `CC(C)(ON1C(C)(C)CC(OC(=O)c2ccccc2)CC1(C)C)c1ccccc1`, for which the melting point is 105 to 108 °C.
